The values below come from patent publication US5726156A, “Cytokine regulatory agents and methods of use in pathologies and conditions associated with altered cytokine levels” (Trega Biosciences, Inc., priority 1995, dated 1998).

Assay [1] relates to TNF-α. Briefly: Reduction of LPS-induced TNF levels in mice (IP dosing). The assay is classed as in vivo. To be noted: 30 μg/mouse IP, one min before LPS 5 mg/kg IP; vs untreated control mice. As for the experimental part: Balb/c female mice weighing approximately 20 g were placed into two groups, a control group and a treated group. Five mg/kg of LPS in 0.9% saline was administered by intraperitoneal (IP) injection into the control mice. Mice in the treated group were first injected IP with 30 μg EX-2 or 150 μg EX-3 in saline, then, one min after EX-2 or EX-3 was administered, the mice received LPS as described for the control group.
Blood samples were collected from the orbital sinus of treated and control mice at various times up to four hr after LPS was administered. The plasma was separated by centrifugation at 3000×g for 5 min, then diluted with four volumes of 1× phosphate buffer saline (pH 7.4) containing 1% bovine serum albumin. A 100 μl sample of serum was assayed by ELISA for TNF-α (Genzyme; Cambridge Mass.).
The mean (+/- SEM) TNF-α level in six mice from each group was determined and the percent reduction in TNF levels was calculated.

For assay [2], the system named is IL-1-induced fever. In words: IL-1β-induced temperature increase (fever). The assay is classed as in vivo, rats. To be noted: 500 μg/kg IP. As for the experimental part:
Male Wistar rats (45-75 days old) were placed in a temperature controlled room held at 26° C., which is thermoneutral for the normal body temperature of rats, and were maintained in the room with free access to food and water for 24 hr prior to testing. On the morning of the study, rats were marked for identification and weighed. The temperature of each rat was determined by placing the animal in a regulatory cage designed to minimize stress and inserting a temperature probe (YSI probe #402) 3-5 cm into the animal's rectum. The temperature was recorded 15 sec after the reading stabilized. Measurements were repeated 1 hr later to establish a baseline temperature for each rat.
After the baseline temperatures were established, rats were injected IP with saline, IL-1β or LPS endotoxin. Rats then were injected IP with either saline (control) or various concentrations of EX-2, EX-3, or EX-4 (treated). The temperature of the rats was measured every hr for 6 hr and the inhibition by EX-2, EX-3, or EX-4 of the rise in temperature due to IL-1β or LPS was determined.
In addition, treatment with 50 or 150 μg/kg EX-2 inhibited LPS-induced fever by 45% or 52%, respectively, when measured 6 hr following LPS injection. Furthermore, treatment with 150 μg/kg EX-3 or EX-4 inhibited LPS-induced fever by 57% and 52%, respectively (Table II).

Assay [3] relates to arachidonic acid-induced ear swelling. Briefly: Arachidonic acid-induced ear swelling. The assay is classed as in vivo, mice. To be noted: 100 μg/mouse IP 30 min prior to AA; 60 min after AA. As for the experimental part:
Experiments were performed using female Balb/c mice weighing 18-23 grams. Saline or 100 μg EX-2 or EX-3 was administered IP, 30 min prior to topical application of arachidonic acid (AA). A 10 μl pipet was used to apply 10 μl AA solution (100 mg/ml ethanol; Calbiochem-Novabiochem; San Diego Calif.) to the inner and outer surfaces of the right ear of each mouse. Ten μl ethanol, alone, was applied to the inner and outer surface of the left ear of each mouse. Ear thickness was measured with a hand-held spring loaded caliper immediately before and 60 min after AA application. Increase in ear thickness was calculated by subtracting the change observed in the control ear from the change observed in AA-treated ear. The value for each group (saline and control) is the average of the swelling observed in the individual mice in each group. The percent reduction of swelling is based on the swelling observed in the saline control group.

Assay [4] relates to kidney (cisplatin nephrotoxicity). Briefly: Cisplatin (CDDP) nephrotoxicity, renal function. The assay is classed as in vivo, rats. On the procedure: Male Sprague-Dawley were used to determine the effect of EX-2 on renal function after cisplatin (CDDP) administration. All rats were administered CDDP (4 mg/kg IP) and divided in 3 treatment groups (n=6/group). The groups were as follows: (1) Administration with vehicle and sterile PBS 3×/day; (2) Administration of EX-2 at a dose of 5 μg/kg, 3×/day; and (3) same as group 2 except the dose of EX-2 was 50 μg/kg, 3×/day. An infusion of ^3 H-inulin (0.6 μCi/ml in PBS) (2 ml/hr) was initiated at the end of the surgical preparation period. The continuous infusion was started 60 min prior to the renal function measurements and maintained to the end of the study. Glomerular filtration was assessed by inulin clearance techniques in two 30 min periods and renal blood flow (RBF) and renal plasma flow (RPF) were measured by inulin extraction techniques (arterial vs. renal vein inulin concentration) from left kidney renal vein blood sampled at the end of the second GFR measurement period. Urinary output was also monitored to determine both urine flow and fractional excretion of water. Urinary electrolyte (Na^+ and K^+) concentrations were analyzed by flame photometry (Model 51 Ca, Bacharch, inc.; Pittsburgh, Pa.) and urinary protein concentrations were determined. At the end of the measurement periods, the kidneys were removed for histological analysis.

Assay [5] deals with Zucker NIDDM diabetes. Briefly: Heritable diabetes, Zucker NIDDM rats. To be noted: 25 μg/kg every 8 hr for approximately three months. The assay is classed as in vivo. On the procedure: Male Zucker rats are a well established rat model for heritable non-insulin dependent diabetes mellitus (NIDDM), as described, for example, by Ward et al., Ann. Clin. Lab. Sci., 24:266-277, (1994), which is incorporated herein by reference. Eighteen male Zucker rats were used to study the effects of EX-2 on NIDDM, a chronic disease. The rats were placed into two groups and received either saline or 25 μg/kg EX-2 every 8 hr for approximately three months. Blood samples were collected by tail clip and urine samples were collected by placing animals in metabolic cages fro 24 hr. Plasma insulin was assayed using an RIA kit (Amersham Life Sciences, Arlington Heights, Ill.). Urine protein was assayed for using a commercial protein assay kit (Coomassie Plus, Pierce, Rockford, Ill.). Body weighed measurements were made with a Mettler Toledo top loader balance.

Assay [6] deals with IL-10. Briefly: Increasing levels of IL-10 in human plasma. The assay is classed as in vivo. To be noted: for increase of plasma IL-10: healthy male volunteers. As for the experimental part: EX-2 was administered by intravenous infusion to eight healthy male volunteers in doses of either 200 or 500 ug/kg. Plasma IL-10 levels increased in two of four volunteers after administration at 200 ug/kg EX-2 (FIG. 3a) and in four of four volunteers after administration of 500 ug/kg EX-2 (FIG. 3b).

Where [7] appears, read: CDDP 4 mg/kg IP + 5 μg/kg EX-2 3×/day.
The mark [8] stands for this setting: CDDP 4 mg/kg IP + 50 μg/kg EX-2 3×/day.

“Ac-Nle-Gln-His-(D)Phe-Arg-(D)Trp-Gly-NH2 [EX-2]”: the “Reduction in TNF levels” value in assay [1] came out at 50%. For the same substance, in assay [2], the “Reduction in IL-1-induced Fever” value is 52%. Also, in assay [3], the “Reduction in arachidonic acid-induced Ear Swelling” value stood at 72%. In assay [4] (setting [7]), the GFR worked out at 0.8 ± 0.2, the RBF was determined as 12.1 ± 2.0 and the RPF stood at 6.5 ± 1.0 ml/mm. In addition, in assay [4] (setting [8]), the GFR was 1.6 ± 0.4, the RBF was 16.8 ± 2.2 and the RPF worked out at 8.8 ± 1.1 ml/mm. In assay [5], the “% Reduction, Zucker NIDDM Diabetes, Body Weight (grams)” value is reported as 32%; the “% Reduction, Zucker NIDDM Diabetes, Insulin (ng/ml)” value is recorded as 39%; the “% Reduction, Zucker NIDDM Diabetes, Urine Protein (mg/24 hr)” value is reported as 87%; the “decrease in body weight” value is reported as “approximately 100 gram”. In assay [6] (200 ug/kg intravenous infusion), the “volunteers in whom plasma IL-10 levels increased” value was “two of four” and the “increase of plasma IL-10” value is reported as 85%. In assay [6] (500 ug/kg intravenous infusion), the “volunteers in whom plasma IL-10 levels increased” value was “four of four” and the “increase of plasma IL-10” value is reported as 230%.
